Key:
[1] = target: Sodium channel protein type 10 subunit alpha (Mus musculus, UniProt Q6QIY3); assay: Inhibition of mouse recombinant Nav 1.8 channel expressed in HEK293 cells by isotopic efflux assay; format: cell-based
[2] = Intrinsic clearance in Sprague-Dawley rat microsomes after 1 hr; format: ADME, Liver, Microsome
[3] = Activity at rat dorsal root ganglion in inactivated state with prepulse voltage of -40 mV assessed as blockade of TTx-resistant sodium current at 0.3 uM by whole-cell patch clamp technique; format: functional
[4] = Activity at rat dorsal root ganglion in inactivated state with prepulse voltage of -40 mV assessed as blockade of TTx-resistant sodium current at 0.1 uM by whole-cell patch clamp technique; format: functional
[5] = Activity at rat dorsal root ganglion in resting state with prepulse voltage of -100 mV assessed as blockade of TTx-resistant sodium current at 0.3 uM by whole-cell patch clamp technique; format: functional
[6] = Activity at rat dorsal root ganglion in resting state with prepulse voltage of -100 mV assessed as blockade of TTx-resistant sodium current at 0.1 uM by whole-cell patch clamp technique; format: functional
[7] = target: T1, Sodium channel protein type 10 subunit alpha (Homo sapiens, UniProt Q9Y5Y9); assay: Activity at human recombinant Nav 1.8 channel expressed in HEK293 cells in inactivated state with prepulse voltage of -40 mV assessed as blockade of TTx-resistant sodium current at 0.01 uM; format: cell-based
[8] = target: T1, Sodium channel protein type 10 subunit alpha; assay: Activity at human recombinant Nav 1.8 channel expressed in HEK293 cells in inactivated state with prepulse voltage of -40 mV assessed as blockade of TTx-resistant sodium current at 0.003 uM; format: cell-based
[9] = target: T1, Sodium channel protein type 10 subunit alpha; assay: Activity at human recombinant Nav 1.8 channel expressed in HEK293 cells in resting state with prepulse voltage of -100 mV assessed as blockade of TTx-resistant sodium current at 0.01 uM; format: cell-based
[10] = target: T1, Sodium channel protein type 10 subunit alpha; assay: Activity at human recombinant Nav 1.8 channel expressed in HEK293 cells in resting state with prepulse voltage of -100 mV assessed as blockade of TTx-resistant sodium current at 0.003 uM; format: cell-based
[11] = target: T1, Sodium channel protein type 10 subunit alpha; assay: Inhibition of human recombinant Nav 1.8 channel expressed in HEK293 cells at 0.01 uM; format: cell-based
[12] = target: T1, Sodium channel protein type 10 subunit alpha; assay: Inhibition of human recombinant Nav 1.8 channel expressed in HEK293 cells at 0.003 uM; format: cell-based
[13] = target: Sodium channel protein type 2 subunit alpha (Homo sapiens) (UniProt Q99250); assay: Inhibition of human Nav1.2 channel at 3 uM
[14] = target: Sodium channel protein type 2 subunit alpha (Homo sapiens) (UniProt Q99250); assay: Inhibition of human Nav1.2 channel at 10 uM
[15] = target: Sodium channel protein type 3 subunit alpha (Homo sapiens) (UniProt Q9NY46); assay: Inhibition of human Nav1.3 channel at 3 uM
[16] = target: Sodium channel protein type 3 subunit alpha (Homo sapiens) (UniProt Q9NY46); assay: Inhibition of human Nav1.3 channel at 10 uM
[17] = target: T2, Nav1.5 (sodium channel protein type 5 subunit alpha) (Homo sapiens, UniProt Q14524); assay: Inhibition of human Nav1.5 channel at 3 uM
[18] = target: Sodium channel protein type 5 subunit alpha (Homo sapiens, UniProt Q14524); assay: Inhibition of human Nav1.5 channel at 1 uM
[19] = target: T2, Nav1.5 (sodium channel protein type 5 subunit alpha); assay: Inhibition of human Nav1.5 channel at 10 uM
[20] = target: Sodium channel protein type 9 subunit alpha (Homo sapiens) (UniProt Q15858); assay: Inhibition of human Nav1.7 channel at 3 uM
[21] = target: Sodium channel protein type 9 subunit alpha (Homo sapiens) (UniProt Q15858); assay: Inhibition of human Nav1.7 channel at 10 uM
[22] = Half life in Sprague-Dawley rat; format: ADME, organism-based; settings: in vivo
[23] = Volume of distribution at steady state in Sprague-Dawley rat; format: ADME, organism-based; settings: in vivo, read-out: Vdss
[24] = Ratio of drug level in brain to plasma in Sprague-Dawley rat; format: ADME
Rattus norvegicus [25] = assay: Antinociceptive activity in ip dosed Sprague-Dawley rat assessed as attenuation of mechanical allodynia in chung model of neuropathic pain; format: functional
Rattus norvegicus [26] = assay: Antinociceptive activity in ip dosed Sprague-Dawley rat assessed as reduction of mechanical allodynia in Bennett model of neuropathic pain; format: functional; design: Activity: scale not given: the % may be the effect or the level left
Rattus norvegicus [27] = assay: Antinociceptive activity in ip dosed Sprague-Dawley rat assessed as reduction of CFA-induced thermal hyperalgesia; format: functional; design: Activity: scale not given: the % may be the effect or the level left
Translocator protein [28] = target: T3, Translocator protein (Homo sapiens, UniProt P30536); assay: Binding affinity to peripheral benzodiazepine receptor at 10 uM
Translocator protein [29] = target: T3, Translocator protein; assay: Binding affinity to peripheral benzodiazepine receptor
[30] = target: T4, Cholecystokinin receptor type A (Homo sapiens, UniProt P32238); assay: Binding affinity to CCKAR
T4 sequence (P32238 whole entry): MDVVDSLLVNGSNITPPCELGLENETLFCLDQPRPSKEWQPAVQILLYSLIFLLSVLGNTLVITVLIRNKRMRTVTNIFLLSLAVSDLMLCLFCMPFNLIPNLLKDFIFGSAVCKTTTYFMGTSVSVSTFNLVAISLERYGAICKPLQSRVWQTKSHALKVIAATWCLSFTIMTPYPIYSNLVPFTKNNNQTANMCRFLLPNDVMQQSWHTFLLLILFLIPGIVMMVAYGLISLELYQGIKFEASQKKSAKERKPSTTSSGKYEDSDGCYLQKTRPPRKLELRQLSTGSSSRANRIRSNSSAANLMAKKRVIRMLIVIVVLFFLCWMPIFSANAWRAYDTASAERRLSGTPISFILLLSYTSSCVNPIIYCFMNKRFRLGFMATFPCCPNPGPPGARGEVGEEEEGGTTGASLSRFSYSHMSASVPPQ

D(1A) dopamine receptor [31] = target: T5, D(1A) dopamine receptor (Homo sapiens, UniProt P21728); assay: Binding affinity to dopamine D1 receptor
[32] = Binding affinity to melatonin receptor 1
[33] = target: T6, 5-hydroxytryptamine receptor 2A (Homo sapiens, UniProt P28223); assay: Binding affinity to 5HT2A receptor
[34] = target: T7, Cholecystokinin receptor type A (Homo sapiens) (UniProt P32238); settings: 10 uM
T7 sequence (whole entry): T4 sequence (P32238 whole entry)

D(1A) dopamine receptor [35] = target: T5, D(1A) dopamine receptor; settings: 10 uM
[36] = target: T6, 5-hydroxytryptamine receptor 2A; settings: 10 uM
[37] = Rattus norvegicus, Sprague-Dawley, ip

T1 sequence (Q9Y5Y9 whole entry, looked up): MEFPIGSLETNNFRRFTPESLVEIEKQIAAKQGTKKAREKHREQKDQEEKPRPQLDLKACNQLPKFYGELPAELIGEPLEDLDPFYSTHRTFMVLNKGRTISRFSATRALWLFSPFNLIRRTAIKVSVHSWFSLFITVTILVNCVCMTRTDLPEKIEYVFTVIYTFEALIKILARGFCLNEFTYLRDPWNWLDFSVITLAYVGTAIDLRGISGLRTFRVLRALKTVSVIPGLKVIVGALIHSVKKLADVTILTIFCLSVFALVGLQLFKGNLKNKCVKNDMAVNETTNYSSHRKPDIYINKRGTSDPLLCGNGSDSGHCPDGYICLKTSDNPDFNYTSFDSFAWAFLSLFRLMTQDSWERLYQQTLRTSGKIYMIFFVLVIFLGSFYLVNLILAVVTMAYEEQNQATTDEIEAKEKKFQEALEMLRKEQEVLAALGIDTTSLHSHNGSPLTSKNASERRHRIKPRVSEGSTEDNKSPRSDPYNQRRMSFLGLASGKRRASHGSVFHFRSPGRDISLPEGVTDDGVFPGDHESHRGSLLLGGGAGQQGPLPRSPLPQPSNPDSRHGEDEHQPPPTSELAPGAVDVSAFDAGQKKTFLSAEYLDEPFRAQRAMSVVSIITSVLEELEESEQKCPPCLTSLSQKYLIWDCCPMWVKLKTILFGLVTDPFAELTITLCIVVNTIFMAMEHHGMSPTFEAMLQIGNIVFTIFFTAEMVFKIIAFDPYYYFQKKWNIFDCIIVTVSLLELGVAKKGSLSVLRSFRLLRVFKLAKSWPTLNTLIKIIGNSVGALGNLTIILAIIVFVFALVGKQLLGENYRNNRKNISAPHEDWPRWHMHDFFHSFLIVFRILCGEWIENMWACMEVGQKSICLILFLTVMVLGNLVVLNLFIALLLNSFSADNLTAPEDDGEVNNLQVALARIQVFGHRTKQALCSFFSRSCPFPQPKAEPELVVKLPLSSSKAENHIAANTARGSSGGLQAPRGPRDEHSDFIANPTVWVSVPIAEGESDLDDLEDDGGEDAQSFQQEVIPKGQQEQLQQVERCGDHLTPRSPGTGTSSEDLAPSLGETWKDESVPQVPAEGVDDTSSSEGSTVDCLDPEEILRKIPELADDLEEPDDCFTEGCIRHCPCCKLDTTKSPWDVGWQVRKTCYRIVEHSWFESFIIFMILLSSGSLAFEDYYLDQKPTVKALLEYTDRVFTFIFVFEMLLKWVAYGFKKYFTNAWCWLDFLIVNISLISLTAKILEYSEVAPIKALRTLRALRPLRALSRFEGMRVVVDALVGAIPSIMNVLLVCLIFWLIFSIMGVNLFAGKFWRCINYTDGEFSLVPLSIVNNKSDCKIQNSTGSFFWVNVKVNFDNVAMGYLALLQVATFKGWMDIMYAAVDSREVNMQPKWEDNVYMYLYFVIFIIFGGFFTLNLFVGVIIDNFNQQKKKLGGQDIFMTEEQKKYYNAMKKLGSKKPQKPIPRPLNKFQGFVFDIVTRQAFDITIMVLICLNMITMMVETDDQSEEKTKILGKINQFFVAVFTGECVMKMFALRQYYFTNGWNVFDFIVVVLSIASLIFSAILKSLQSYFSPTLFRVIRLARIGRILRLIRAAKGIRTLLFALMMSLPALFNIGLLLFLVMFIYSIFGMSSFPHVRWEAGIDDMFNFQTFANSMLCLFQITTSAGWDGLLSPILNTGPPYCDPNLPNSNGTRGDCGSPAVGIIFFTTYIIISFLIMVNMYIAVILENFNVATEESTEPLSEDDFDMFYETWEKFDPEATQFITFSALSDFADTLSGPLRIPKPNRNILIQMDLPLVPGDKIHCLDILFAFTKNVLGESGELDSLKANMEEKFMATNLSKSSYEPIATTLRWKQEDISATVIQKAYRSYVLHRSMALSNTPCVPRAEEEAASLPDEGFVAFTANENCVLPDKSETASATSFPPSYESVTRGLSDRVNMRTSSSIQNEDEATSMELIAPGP
Sequence of Sodium channel protein type 2 subunit alpha (Homo sapiens) (Q99250 whole entry, looked up): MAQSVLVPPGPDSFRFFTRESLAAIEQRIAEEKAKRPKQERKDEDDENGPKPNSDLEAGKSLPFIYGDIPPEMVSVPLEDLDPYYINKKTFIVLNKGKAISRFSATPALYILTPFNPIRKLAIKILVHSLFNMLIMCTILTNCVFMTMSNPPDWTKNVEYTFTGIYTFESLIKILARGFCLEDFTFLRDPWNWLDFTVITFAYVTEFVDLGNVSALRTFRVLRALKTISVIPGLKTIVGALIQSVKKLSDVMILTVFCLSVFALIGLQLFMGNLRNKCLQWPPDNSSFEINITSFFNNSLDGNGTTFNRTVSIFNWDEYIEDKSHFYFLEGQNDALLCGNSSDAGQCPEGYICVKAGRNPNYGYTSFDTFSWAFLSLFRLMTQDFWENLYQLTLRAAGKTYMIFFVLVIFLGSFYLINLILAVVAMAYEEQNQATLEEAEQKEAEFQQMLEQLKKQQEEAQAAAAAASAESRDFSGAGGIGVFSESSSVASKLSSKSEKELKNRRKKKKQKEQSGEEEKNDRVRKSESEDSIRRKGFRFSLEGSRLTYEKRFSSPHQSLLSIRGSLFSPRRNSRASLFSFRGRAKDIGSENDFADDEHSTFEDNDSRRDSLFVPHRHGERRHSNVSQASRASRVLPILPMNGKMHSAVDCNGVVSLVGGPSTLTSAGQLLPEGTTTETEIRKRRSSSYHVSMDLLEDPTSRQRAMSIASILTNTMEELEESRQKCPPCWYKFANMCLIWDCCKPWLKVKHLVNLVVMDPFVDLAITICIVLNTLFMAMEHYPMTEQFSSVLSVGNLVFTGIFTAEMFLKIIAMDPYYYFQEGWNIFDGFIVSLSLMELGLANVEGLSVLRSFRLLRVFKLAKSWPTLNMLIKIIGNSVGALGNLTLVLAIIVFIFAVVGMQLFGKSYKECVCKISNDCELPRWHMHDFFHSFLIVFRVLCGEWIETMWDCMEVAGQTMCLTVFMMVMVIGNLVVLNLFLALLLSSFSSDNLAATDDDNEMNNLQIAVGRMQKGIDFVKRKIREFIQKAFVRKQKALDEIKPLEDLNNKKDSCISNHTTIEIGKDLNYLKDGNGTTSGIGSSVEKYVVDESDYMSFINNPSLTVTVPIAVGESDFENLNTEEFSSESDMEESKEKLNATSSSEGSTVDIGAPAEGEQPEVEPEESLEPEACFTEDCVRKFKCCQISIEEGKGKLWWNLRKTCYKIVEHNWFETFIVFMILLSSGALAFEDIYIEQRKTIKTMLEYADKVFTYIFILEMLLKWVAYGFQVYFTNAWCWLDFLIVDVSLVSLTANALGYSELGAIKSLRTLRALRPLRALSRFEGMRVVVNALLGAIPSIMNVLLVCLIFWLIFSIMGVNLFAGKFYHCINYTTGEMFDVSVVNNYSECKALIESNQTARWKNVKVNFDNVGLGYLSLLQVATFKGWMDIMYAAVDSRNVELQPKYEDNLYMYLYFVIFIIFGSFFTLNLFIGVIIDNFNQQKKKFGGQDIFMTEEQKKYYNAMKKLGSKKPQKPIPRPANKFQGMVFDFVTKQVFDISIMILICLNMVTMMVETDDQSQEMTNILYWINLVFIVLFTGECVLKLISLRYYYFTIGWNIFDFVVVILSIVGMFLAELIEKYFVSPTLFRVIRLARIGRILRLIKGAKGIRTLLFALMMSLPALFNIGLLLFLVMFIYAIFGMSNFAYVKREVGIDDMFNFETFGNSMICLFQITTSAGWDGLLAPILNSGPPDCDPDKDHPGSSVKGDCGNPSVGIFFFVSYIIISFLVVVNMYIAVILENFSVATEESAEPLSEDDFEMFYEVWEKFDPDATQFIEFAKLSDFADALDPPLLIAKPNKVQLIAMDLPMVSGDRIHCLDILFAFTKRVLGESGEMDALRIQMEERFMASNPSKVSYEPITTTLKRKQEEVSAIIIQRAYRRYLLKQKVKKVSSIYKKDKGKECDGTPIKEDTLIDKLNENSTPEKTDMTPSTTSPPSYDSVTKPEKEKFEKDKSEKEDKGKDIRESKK
T5 sequence (P21728 whole entry): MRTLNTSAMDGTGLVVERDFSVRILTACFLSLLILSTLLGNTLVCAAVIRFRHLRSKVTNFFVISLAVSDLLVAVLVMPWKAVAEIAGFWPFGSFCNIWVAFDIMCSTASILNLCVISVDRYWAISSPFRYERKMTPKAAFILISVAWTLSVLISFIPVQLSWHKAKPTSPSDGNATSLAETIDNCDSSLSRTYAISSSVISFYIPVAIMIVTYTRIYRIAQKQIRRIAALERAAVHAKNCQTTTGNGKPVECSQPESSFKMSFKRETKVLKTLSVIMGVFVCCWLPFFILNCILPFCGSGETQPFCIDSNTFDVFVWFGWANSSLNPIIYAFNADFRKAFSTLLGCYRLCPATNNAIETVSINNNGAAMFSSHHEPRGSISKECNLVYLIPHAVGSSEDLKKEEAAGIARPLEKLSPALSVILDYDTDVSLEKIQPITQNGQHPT
T3 sequence (P30536 whole entry): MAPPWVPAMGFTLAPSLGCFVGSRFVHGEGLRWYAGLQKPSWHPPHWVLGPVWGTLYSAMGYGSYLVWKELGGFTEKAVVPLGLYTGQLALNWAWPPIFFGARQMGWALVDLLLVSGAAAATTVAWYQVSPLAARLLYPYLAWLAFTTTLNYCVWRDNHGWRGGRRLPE
T6 sequence (P28223 whole entry): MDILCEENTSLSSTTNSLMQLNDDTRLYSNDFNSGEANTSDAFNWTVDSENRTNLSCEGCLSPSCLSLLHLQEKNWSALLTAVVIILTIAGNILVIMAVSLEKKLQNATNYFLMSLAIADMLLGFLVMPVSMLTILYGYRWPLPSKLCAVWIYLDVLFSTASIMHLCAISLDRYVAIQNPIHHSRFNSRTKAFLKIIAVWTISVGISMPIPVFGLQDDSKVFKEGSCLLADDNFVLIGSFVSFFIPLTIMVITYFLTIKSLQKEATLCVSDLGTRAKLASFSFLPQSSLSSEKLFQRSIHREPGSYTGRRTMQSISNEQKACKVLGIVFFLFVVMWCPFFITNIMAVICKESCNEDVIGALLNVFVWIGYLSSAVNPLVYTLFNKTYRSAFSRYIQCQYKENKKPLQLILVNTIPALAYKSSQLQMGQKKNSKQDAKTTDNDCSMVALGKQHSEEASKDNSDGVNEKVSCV

## COc1cc(NC(=O)c2ccc(-c3ccc(Cl)cc3)o2)cc(OC)c1
[1]
  IC50: 850 nM
[2]
  microsomal CLint: 140 µL/min/mg
[3]
  inhibition at 0.3 µM: 71%
[4]
  inhibition at 0.1 µM: 48%
[5]
  inhibition at 0.3 µM: 48%
[6]
  inhibition at 0.1 µM: 14%
[7]
  inhibition: 59%
[8]
  inhibition: 30%
[9]
  inhibition: 19%
[10]
  inhibition: 5%
[11]
  inhibition: 59%
[12]
  inhibition: 30%
[13]
  inhibition: 41%
[14]
  inhibition: 53%
[15]
  inhibition: 52%
[16]
  inhibition: 70%
[17]
  inhibition at 3 µM: 44%
[18]
  IC50: > 2000 nM
[19]
  inhibition at 10 µM: 49%
[20]
  inhibition: 42%
[21]
  inhibition: 54%
[22]
  half-life: 7.3 h
[23]
  Vd: 6.4 L/kg
[24]
  Kp: 1.1
Rattus norvegicus [25]
  Activity: 70%
Rattus norvegicus [25]; [37]
  ED50: 47 mg/kg
Rattus norvegicus [26]
  Activity: 56%
Rattus norvegicus [26]; [37]
  ED50: 85 mg/kg
Rattus norvegicus [27]
  Activity: 64%
Rattus norvegicus [27]; [37]
  ED50: 41 mg/kg
Translocator protein [28]
  inhibition: > 60%
Translocator protein [29]
  IC50: > 2000 nM
[30]
  IC50: > 2000 nM
D(1A) dopamine receptor [31]
  IC50: > 2000 nM
[32]
  IC50: > 2000 nM
[33]
  IC50: > 2000 nM
[34]
  inhibition: > 60%
D(1A) dopamine receptor [35]
  inhibition: > 60%
[36]
  inhibition: > 60%

— ChEMBL document CHEMBL1140726, “Discovery and biological evaluation of 5-aryl-2-furfuramides, potent and selective blockers of the Nav1.8 sodium channel with efficacy in models of neuropathic and inflammatory pain” (J Med Chem, 2008)
